# Measurements published in patent publication US12673026B2, “Liposomal compositions and methods of use thereof for improved stability, bioavailability and sustained release” (SpecNova LLC, priority 2023, dated 2026).
# Key:
# [1] = L-carnosine stability in simulated gastric and intestinal fluids; type: physicochemical; conditions: for % Remaining: 10 μM, 37.0° C.
# Method: Three fluids were simulated: fasted (pH 1.2) and fed (pH 3.5) simulated gastric fluid (SGF) and simulated intestinal fluid (SIF) (pH 6.8). […] A zero time point was taken after adding the appropriate stock to each fluid (N=2) and mixed by pipette. Time points were then taken at 5, 10, 15, 30, 60, 90, and 120 minutes. These were quenched with ACN and kept on ice. The samples were then added to 50% ACN in […] ammonium acetate buffer (pH=3.6) with Verapamil for Internal Standard (IS) and filtered before analysis.
# Two concentrations of working stocks were made at 5000 ng/ml and 200 ng/ml. In Table 12, diluent is 50% ACN in […] ammonium acetate buffer (pH=3.6). The total analytical volume was 200 μL for all standards and samples. Six sets of QCs were used along with the samples and seven calibration standards. All were analyzed by UPLC-MS/MS on the same day as preparation.
# [2] = Carnosine permeability across Caco-2 cells; type: in vitro ADME, Human; conditions: human; Caco-2 passage 26; 20 μM in HBSS; apical to basolateral
# Method: (§1) The study was performed using Caco-2 cells at a passage number of 26 seeded on a 24-well transwell plates. The permeability of carnosine was studied at a concentration of 20 μM. Compounds were solubilized in HBSS and added to apical compartment of transwells and blank buffer on basolateral side.
# Caco-2 cells [3] = assay: Carnosine permeability across Caco-2 cells; type: in vitro ADME, Human; conditions: Caco-2 passage 26, A-->B
# Method: as §1
# [4] = CoQ10 Caco-2 permeability; type: in vitro ADME, Human; conditions: human; Caco-2 passage 38; formulation: supernatant of 1 mg/mL in HBSS; pure compound 10 μM; apical to basolateral
# Method: (§2) The study was performed using Caco-2 cells at a passage number of 38 seeded on a 24-well transwell plate. […] Instead, the formulation was added to the HBSS buffer at a concentration of 1 mg/mL, vortexed, and centrifuged for 15 min at 10,000 G-force. The supernatant was used for permeability assessment. For pure compound, the permeability study was performed at 10 μM final concentration. Compound solutions were added to the apical compartments of the transwell and blank buffer on the basolateral side. FIG. 9 provides a visual summary of this process.
# Caco-2 cells [5] = assay: CoQ10 Caco-2 permeability; type: in vitro ADME, Human; conditions: Caco-2 passage 38, A --> B
# Method: as §2
# [6] = Berberine chloride Caco-2 permeability; type: in vitro ADME, Human; conditions: human; Caco-2 passage 38; formulation: supernatant of 1 mg/mL in HBSS; pure compound 10 μM; apical to basolateral
# Method: as §2
# Caco-2 cells [7] = assay: Berberine chloride Caco-2 permeability; type: in vitro ADME, Human; conditions: Caco-2 passage 38, A --> B
# Method: as §2
# [8] = Quercetin Caco-2 permeability; type: in vitro ADME, Human; conditions: human; Caco-2 passage 28; 20 μM in HBSS; apical to basolateral
# Method: (§3) The study was performed using Caco-2 cells at a passage number of 28 seeded on a 96-well Transwell plates. Permeability was studied at a concentration of 20 μM. Compounds were solubilized in HBSS and added to apical compartment of the Transwell plate and blank buffer on basolateral side. FIG. 17 provides a visual summary of this process.
# Caco-2 cells [9] = assay: Quercetin Caco-2 permeability; type: in vitro ADME, Human; conditions: Caco-2 passage 28, A-->B
# Method: as §3
# [10] = Randomized, double-blind, placebo-controlled crossover trial: plasma and leukocyte vitamin C concentration after single dose; type: in vivo, human; conditions: single 500 mg dose; p<0.001
# Method: Venous blood samples were collected 0, 0.5-, 1-, 1.5-, 2-, 3-, 4-, 6-, 8-, 12-, and 24-hours after ingestion and were analyzed for plasma and leukocyte vitamin C concentration.
smiles,measurement,setting,value
"NCCC(=O)N[C@@H](Cc1cnc[nH]1)C(=O)O [Carnosine, L-carnosine]",% Remaining,"[1]; Fasted SGF (pH 1.2), 0 minutes",100%
same,% Remaining,"[1]; Fasted SGF (pH 1.2), 5 minutes",100.3%
same,% Remaining,"[1]; Fasted SGF (pH 1.2), 10 minutes",95.5%
same,% Remaining,"[1]; Fasted SGF (pH 1.2), 15 minutes",97.5%
same,% Remaining,"[1]; Fasted SGF (pH 1.2), 30 minutes",94%
same,% Remaining,"[1]; Fasted SGF (pH 1.2), 60 minutes",99.4%
same,% Remaining,"[1]; Fasted SGF (pH 1.2), 90 minutes",101.5%
same,% Remaining,"[1]; Fasted SGF (pH 1.2), 120 minutes",96.5%
same,% Remaining,"[1]; Fed SGF (pH 3.5), 0 minutes",100%
same,% Remaining,"[1]; Fed SGF (pH 3.5), 5 minutes",103.9%
same,% Remaining,"[1]; Fed SGF (pH 3.5), 10 minutes",97.6%
same,% Remaining,"[1]; Fed SGF (pH 3.5), 15 minutes",91.9%
same,% Remaining,"[1]; Fed SGF (pH 3.5), 30 minutes",96.5%
same,% Remaining,"[1]; Fed SGF (pH 3.5), 60 minutes",102.2%
same,% Remaining,"[1]; Fed SGF (pH 3.5), 90 minutes",97.4%
same,% Remaining,"[1]; Fed SGF (pH 3.5), 120 minutes",97.4%
same,% Remaining,"[1]; SIF (pH 6.8), 0 minutes",100%
same,% Remaining,"[1]; SIF (pH 6.8), 5 minutes",96.9%
same,% Remaining,"[1]; SIF (pH 6.8), 10 minutes",91%
same,% Remaining,"[1]; SIF (pH 6.8), 15 minutes",89%
same,% Remaining,"[1]; SIF (pH 6.8), 30 minutes",95.8%
same,% Remaining,"[1]; SIF (pH 6.8), 60 minutes",103%
same,% Remaining,"[1]; SIF (pH 6.8), 90 minutes",100.1%
same,% Remaining,"[1]; SIF (pH 6.8), 120 minutes",99.1%
same,stability in SGF and SIF,[1]; over 120 minutes,stable
same,Papp A→B at 20 μM,[2],3.05 ± 0.62 ×10⁻⁶ cm/s
same,Permeability Class (High/Low),Caco-2 cells [3],Low
"COC1=C(OC)C(=O)C(C/C=C(\C)CC/C=C(\C)CC/C=C(\C)CC/C=C(\C)CC/C=C(\C)CC/C=C(\C)CC/C=C(\C)CC/C=C(\C)CC/C=C(\C)CCC=C(C)C)=C(C)C1=O [CoQ10 Reference Standard, CoQ10]",Papp A→B at 10 μM,[4],0.2 ± 0.13 ×10⁻⁶ cm/s
same,Permeability Class (High/Low),Caco-2 cells [5],Low
"COc1ccc2cc3[n+](cc2c1OC)CCc1cc2c(cc1-3)OCO2 [Sigma Aldrich Berberine Chloride, Berberine Chloride]",Papp A→B at 10 μM,[6],2.17 ± 0.17 ×10⁻⁶ cm/s
same,Permeability Class (High/Low),Caco-2 cells [7],Low
"O=c1c(O)c(-c2ccc(O)c(O)c2)oc2cc(O)cc(O)c12 [USP Quercetin, quercetin]",Papp A→B at 20 μM,[8],8.83 ± 0.17 ×10⁻⁶ cm/s
same,Permeability Class (High/Low),Caco-2 cells [9],High
"O=C1O[C@H]([C@@H](O)CO)C(O)=C1O [VIT C, L-Ascorbic acid]",Cmax and AUC0-24 in plasma and in leukocytes compared to placebo,[10],significantly greater
